Common to all, as to assay: NCI anticancer screen, dose series, 48 h
The subject of assay [1] is MOLT-4.
The subject of assay [2] is K562.
Assay [3] relates to SW-620.
The subject of assay [4] is SNB-19.
Assay [5] relates to SNB-75.
The test system of assay [6] is NCI-H23.
In assay [7] the test system is SK-MEL-2.
The subject of assay [8] is UO-31.
Assay [9] relates to SF-295.
Assay [10] relates to U-251.
The subject of assay [11] is EKVX.
Assay [12] has as its system M14.
For assay [13], the system named is HOP-62.
Assay [14] deals with SF-268.
Assay [15] deals with HOP-92.
Assay [16] has as its system HCC 2998.
Assay [17] deals with OVCAR-4.
The subject of assay [18] is A498.

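The compound was tested at five concentrations on cells cultured in 96-well plates, with a 48-hour exposure period. GI50 is the concentration that inhibits growth by half.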 Activity calls are given as the source filed them. No stated cut-off is given here; in the data, active = GI50 up to about 1.1 µM and inactive = higher.

Here are results for 13 molecules from ChEMBL document CHEMBL1201862, “PubChem BioAssay data set” (2004).

Turning to `COc1nc2c(OC)cccc2c(OC)c1C=O`, the GI50 is 61.5 µM (inactive) in [1]; 53.7 µM (inactive) in [2]; 96.4 µM (inactive) in [3]; > 100 µM (inactive) in assay [4]; 30.8 µM (inactive) in assay [5]; > 100 µM (inactive) in assay [6]. The GI50 in assay [7], in assay [8], in [9], in assay [10], in assay [11] and in assay [12] was > 100 µM (inactive) throughout. Moreover, in assay [13], the GI50 was 22.1 µM (inactive).
`CC(C)(C)CC(C)(C)c1cc2c(O)c(c1)Cc1cc(C(C)(C)CC(C)(C)C)cc(c1O)Cc1cc(C(C)(C)CC(C)(C)C)cc(c1O)Cc1cc(C(C)(C)CC(C)(C)C)cc(c1O)Cc1cc(C(C)(C)CC(C)(C)C)cc(c1O)C2`: the GI50 in assay [1], in assay [2], in [14], in [3], in [4] and in assay [5] was > 100 µM (inactive) each time. In addition, the GI50 in assay [6], in assay [15], in assay [7], in assay [16], in [8] and in assay [9] was > 100 µM (inactive) each time. Also, the GI50 in [10], in assay [17], in [11], in assay [12] and in [13] was > 100 µM (inactive) throughout.
With `CN(C)C=C1C(Cl)=C(C=O)CC(C=O)=C1Cl`, the GI50 in [1] is 2.54 µM (inactive); in [2] it was 3.03 µM (inactive); in [14], 8.17 µM (inactive); in [3], 1.56 µM (inactive); in assay [4] it was 14.3 µM (inactive); in assay [5], 15.4 µM (inactive). Further, the GI50 was 14.6 µM (inactive) in assay [6]; 4.2 µM (inactive) in [15]; 17.6 µM (inactive) in assay [7]; 15.2 µM (inactive) in [16]; 17.7 µM (inactive) in assay [8]; 18.3 µM (inactive) in [9]. The GI50 in assay [10] was 11.4 µM (inactive); in [17], 14.4 µM (inactive); in [11], 22.4 µM (inactive); in [12], 12.2 µM (inactive); in assay [13], 23.7 µM (inactive).
Take `Cc1ccc(C)c(N2C(=O)C(=O)C(c3nc4ccccc4s3)/C(=N/N)C2=O)c1` (stereo unspecified): the GI50 in assay [1], in assay [2], in [14], in assay [3], in assay [4] and in assay [5] was > 100 µM (inactive) throughout. Further, the GI50 in assay [6] was > 80.5 µM (inactive); in [15] it was > 100 µM (inactive); in assay [7], > 100 µM (inactive); in assay [16], > 100 µM (inactive); in assay [8], > 100 µM (inactive); in assay [10], > 100 µM (inactive). The GI50 is > 46.9 µM (inactive) in assay [17], > 100 µM (inactive) in [11], > 100 µM (inactive) in [12] and > 100 µM (inactive) in assay [13].
With `COC(=O)C12C3C=CC(O3)C1C1C=CC2O1` (stereo unspecified), the GI50 in assay [1], in [2], in assay [14], in [3], in [4] and in [6] was > 100 µM (inactive) in each case. Moreover, the GI50 in [15], in assay [7], in assay [16], in assay [8], in [9] and in assay [10] was > 100 µM (inactive) each time. In addition, the GI50 in [11] and in assay [12] was > 100 µM (inactive) in each case.
As for `COC12OCCN(C)C1=CC(=O)C1N=NCC12` (stereo unspecified), the GI50 in assay [1], in assay [2], in assay [3], in [5], in [6] and in assay [15] was > 100 µM (inactive) each time. Also, the GI50 in [16], in [8], in assay [9], in assay [10], in [11] and in [12] was > 100 µM (inactive) in each case. Besides, in assay [18], the GI50 was > 100 µM (inactive).
For the molecule `CN(C)C(=S)/N=c1\ss/c(=N\C(=S)N(C)C)n1-c1cccc(Cl)c1`, the GI50 is > 100 µM (inactive) in [1]; > 100 µM (inactive) in assay [2]; > 100 µM (inactive) in [14]; > 100 µM (inactive) in assay [3]; > 100 µM (inactive) in assay [4]; 36.6 µM (inactive) in [5]. The GI50 in assay [6], in [7], in [16], in assay [8], in assay [9] and in assay [10] was > 100 µM (inactive) each time. Also, the GI50 in assay [17], in assay [11], in assay [12], in [18] and in assay [13] was > 100 µM (inactive) each time.
Regarding `Cc1ccc(S(=O)(=O)O/N=C2\CCC\C2=C/c2ccccc2)cc1`, the GI50 was 13 µM (inactive) in [1]; 26.7 µM (inactive) in assay [2]; 8.87 µM (inactive) in [14]; 29.6 µM (inactive) in [3]; 30.5 µM (inactive) in [4]; 20.2 µM (inactive) in [5]. Moreover, the GI50 was 19.4 µM (inactive) in assay [6]; 15.7 µM (inactive) in assay [15]; 16.9 µM (inactive) in [7]; 17.7 µM (inactive) in assay [16]; 19.9 µM (inactive) in assay [8]; 22.8 µM (inactive) in assay [9]. The GI50 in assay [10] is 31.6 µM (inactive); in assay [17], 23.3 µM (inactive); in [11], 19.6 µM (inactive); in assay [12] it was 21.3 µM (inactive); in assay [13], 36.6 µM (inactive).
With `O=C1Nc2cccc3ncn(c23)C2=C1CCCC2`, the GI50 in assay [1], in assay [2], in assay [14], in assay [3], in assay [4] and in [6] was > 100 µM (inactive) each time. The GI50 in assay [7], in assay [16], in assay [8], in assay [9], in assay [10] and in assay [11] was > 100 µM (inactive) throughout.
Regarding `CC[P+]1(CC)CCCC1`, the GI50 in assay [1], in [2], in assay [14], in assay [3], in assay [4] and in [5] was > 100 µM (inactive) in each case. The GI50 in assay [6], in [7], in [16], in assay [8], in assay [9] and in assay [10] was > 100 µM (inactive) throughout. Besides, the GI50 in assay [17] is > 100 µM (inactive); in [11], > 100 µM (inactive); in assay [12], > 100 µM (inactive); in assay [18], > 10 µM (inactive); in assay [13], > 100 µM (inactive).
Turning to `COC1CC(O[C@H]2CC[C@@]3(C)C(=CCC4(O)C3CCC35C(=O)OC6(C)O[C@@]43CCC65)C2)OC(C)C1O` (stereo partly specified), the GI50 in [1], in assay [2], in [14], in assay [4], in assay [5] and in [6] was > 100 µM (inactive) throughout. For the same molecule, the GI50 in assay [7], in [16], in assay [8], in [9], in [10] and in assay [17] was > 100 µM (inactive) throughout. The GI50 in [11], in assay [12], in assay [18] and in [13] was > 100 µM (inactive) in each case.
For the molecule `C[C@@H](C1CCC2C3C(=CC(=O)[C@@]21C)[C@H](C)[C@]1(CCC(=O)O1)C1OC31)[C@H]1C[C@]2(C)O[C@@](C)(O1)OC2(C)C` (stereo partly specified), the GI50 in [1], in assay [2], in [14], in assay [3], in assay [4] and in assay [6] was > 100 µM (inactive) throughout. In addition, the GI50 in [15], in assay [8], in assay [9], in assay [10], in assay [11] and in assay [12] was > 100 µM (inactive) each time. The GI50 in assay [18] was > 100 µM (inactive).
For the molecule `C/N=C(\S)N/N=C/C(C)=N/N/C(S)=N/C`, the GI50 in assay [1] is 0.323 µM (active); in assay [14], > 100 µM (inactive); in assay [3], > 100 µM (inactive); in assay [4] it was > 100 µM (inactive); in assay [6], > 100 µM (inactive); in assay [7] it was > 100 µM (inactive). Also, the GI50 in assay [16], in [8], in assay [9], in assay [10], in [11] and in assay [12] was > 100 µM (inactive) in each case. Besides, the GI50 in assay [18] was 48.2 µM (inactive); in assay [13], > 100 µM (inactive).
